Laboratory results taken from paper PMC6165478, “Wine and Olive Oil Phenolic Compounds Interaction in Humans” (Diseases, 2018).
“And” between values parts separate entries of the source, which are not always exact repeats. Equal entries are not always repeated. Marks after values point to notes of the source that are not given here.

Experiments:
[1] = Urinary recovery of HT, TYR and their metabolites (LC-MS/MS), crossover clinical trial; assay type: in vivo; details: urine 0-6 h, n = 12, mean ± SD
Experimental: (§1) Volunteers received each treatment in a randomized manner. […] The total duration of the study was nine days.
The quantification of urinary levels of HT and TYR free forms and their metabolites was performed using a solid-phase extraction and following the method previously described. The method was capable of detecting the free forms HT, TYR, and HVALc; the sulfate conjugates HT-sulfate, TYR-sulfate, and HT-acetate-sulfate; and the glucuronide conjugates HT-glucuronide, TYR-glucuronide, and HVALc-glucuronide. Shortly thereafter, aliquots of 0.5 mL of the samples were diluted with 0.5 mL of purified water and spiked with 10 µL of internal standard (containing 10 µg/mL of HT-D3, 3-(4-hydroxyphenyl)-1-propanol, 4-(3-hydroxypropylphenyl) glucuronide and HT-1-sulfate) and stabilized with 1 mL of phosphoric acid 4%. Thereafter, samples were submitted to a solid-phase extraction by means of Oasis HLB columns. Samples were loaded into the cartridges, and the cartridges were then washed with 2 mL of purified water. Finally, the compounds of interest were eluted by adding 2 mL of methanol to the cartridges. Subsequently, the methanol was evaporated until dry using nitrogen (29 °C, 10–15 psi). Finally, the dried extracts were reconstituted in 100 µL of a mixture of mobile phases (91% A/9% B v/v), transferred into HPLC vials, and analyzed by LC-MS/MS.
Identification and quantification of HT and TYR metabolites was performed using an Agilent 1200 series HPLC system (Agilent technologies, Santa Clara, California, CA, USA) coupled to a triple quadrupole (6410 Triple Quad LC/MS; Agilent) mass spectrometer with an electrospray interface. The chromatographic separation was carried out with an Acquity UPLC® BEH C18 column with a 1.7 μm particle size, 3 mm × 100 mm (Waters, Milford, MA, USA) maintained at 40 °C. The composition of mobile phase A was 0.01% of ammonium acetate (pH 5) in water; mobile phase B was pure methanol. The injection volume was 10 μL and the ion source operated in negative ionization mode.

[2] = Urinary recovery of RESV, its isomers and dihydro-RESV (GC-MS after enzymatic hydrolysis), crossover clinical trial; details: for RESV urinary recovery from 0 to 6 h: urine 0-6 h, n = 12, mean ± SD
Experimental: The study consisted of a crossover randomized clinical trial with three different interventions. The interventions consisted of a single administration of 25 mL of EVOO, 150 mL of RW, or the combination of both 25 mL of EVOO and 150 mL of RW. Treatment quantities were equivalent to normal dietary doses of a typical MD. A total of twelve healthy subjects (50% women, 34.0 ± 10.5, BMI = 22.0 ± 3.3 kg/m^2) participated in the study. The study was explained to participants through verbal and written instructions, and written informed consent was obtained before participation. Volunteers received each treatment in a randomized manner. The study included three experimental sessions in which each intervention was administered under fasting conditions. Each experimental session was preceded by a two-day washout period. The total duration of the study was nine days.
On the day of the intervention, subjects consumed one of the three interventions within a period of 5–10 min. Urine was collected in separate fractions, at baseline (−2–0 h), to assess dietary compliance and during 6 h after each dietary intervention (0–6 h). The amount of urine in each fraction was measured, acidified with 6 M HCl, and stored at −20 °C until analysis. The study protocol was approved by the Ethics Committee of Parc de Salut Mar (CEIC-PSMAR) (Spain), and the clinical trial was registered at the International Standard Randomized Controlled Trial Number (NCT03614520).
Urine was subjected to a hydrolysis procedure previously described by our working group. Aliquots of 1 mL of diluted urine (1:10 in water) were spiked with 10 µL of IS (containing 10 µg/mL of diethylstilbestrol), 100 µL of sodium metabisulfite, 1 mL acetate buffer 0.1 M pH 5.2, and 25 µL of β-glucuronidase. The samples were incubated at 37 °C overnight. After incubation, 1 mL of NaOH was added to neutralize the hydrolysis process. For the extraction of the phenolic compounds, 0.5 mL of a saturated solution of NaCl and 4 mL of acetonitrile-ethyl acetate mixture (1:4 v/v) were added. Samples were mixed for 30 min, centrifuged for 5 min at 300 g, and the organic phase was extracted and evaporated until dry. After 1 h in an oven at 50 °C, the residue was derivatized with 75 µL of MSTFA: NH4I:2-mercaptoethanol reaction mixture for 30 min at 60 °C and 2 µL was injected into the gas chromatograph.
For the preparation of the calibration curves, 1 mL of diluted urine (1:10 in water) was spiked with an increasing concentration of c- and t-RESV and dihydro-RESV (10–200 ng/mL), and subjected to the extraction procedure exactly in the same way as the samples.
The extracted samples were analyzed using an Agilent Technologies (Santa Clara, CA, USA) 6890 N gas chromatograph coupled to a 5973 mass-selective detector. For chromatographic separation, a 5% phenyl-dimethyl-polysiloxane Zebron™ (Torrance, CA, USA) fused-silica capillary column (15 m × 0.25 mm i.d., 0.25 µm film thickness) was used. The split injection mode using helium as a carrier gas (0.9 mL/min) was applied. The temperatures of the injector and transfer line were set at 280 °C. Gas chromatographic conditions were as follows: initial oven temperature at 80 °C, raised by 20 °C/min to 200 °C, then by 10 °C/min to 300 °C, and maintained at 300 °C for 3 min. […] Ions at m/z 444 (RESV and piceid), m/z 179 (dihydro-RESV), and m/z 412 (diethylstilbestrol), were selected for the quantitative analysis.

[3] = Ethyl glucuronide quantification in urine (LC-MS/MS); assay type: in vivo, humans
Experimental: as §1
Ethyl glucuronide concentration in urine was used as a marker of alcohol abstinence and compliance with the dietary recommendations before each intervention. To determine urinary concentrations of ethyl glucuronide, aliquots of 30 μL were mixed with 10 μL of IS mix solution (containing 10 μg/mL ethyl-glucuronide-d5 and ethyl-sulfate-d5) and 110 μL of 0.1% formic acid solution in water. The identification and the quantification of ethyl glucuronide were carried out using an Agilent 1200 series HPLC system (Agilent technologies) (Santa Clara, California, CA, USA) coupled to a triple quadrupole (6410 Triple Quad LC/MS; Agilent) mass spectrometer with an electrospray interface. To perform the chromatographic separation, an Acquity UPLC® BEH C18 column with a 1.7 μm particle size, 3 mm × 100 mm (Waters, Milford, MA, USA) was used. The composition of mobile phase A was 0.1% (v/v) formic acid in water, and mobile phase B was 0.1% (v/v) formic acid in acetonitrile.

[4] = baseline urine (-2 to 0 h), after washout diet

Compound | Urinary recovery from 0 to 6 h (single free form or metabolite) ([1]; after 25 mL EVOO + 150 mL RW) | Urinary recovery from 0 to 6 h (single free form or metabolite) ([1]; after single dose 25 mL EVOO) | Urinary recovery from 0 to 6 h (single free form or metabolite) ([1]; after single dose 150 mL RW) | RESV urinary recovery from 0 to 6 h ([2]; after single dose 25 mL EVOO) | RESV urinary recovery from 0 to 6 h ([2]; after 25 mL EVOO + 150 mL RW) | RESV urinary recovery from 0 to 6 h ([2]; after single dose 150 mL RW) | also measured
COc1cc(CCO)ccc1O [Free HVALc, homovanillyl alcohol] | 247 ± 205 ^bb nmol | 269 ± 145 nmol | 110 ± 118 ^aa nmol | – | – | – | –
Oc1ccc(CCc2cc(O)cc(O)c2)cc1 [Dihydro-RESV, Dihydroresveratrol] | – | – | – | 0.0 ± 0.0 nmol | 13.0 ± 8.3 ^aa nmol | 10.9 ± 7.5 ^aa nmol | RESV urinary recovery from 0 to 6 h ([2]; after 25 mL EVOO + 150 mL RW, listed as dihydro-RESV): 13.0 ± 8.3 nmol; RESV urinary recovery from 0 to 6 h ([2]; after single dose 150 mL RW, listed as dihydro-RESV): 10.9 ± 7.5 nmol
CCO[C@@H]1O[C@H](C(=O)O)[C@@H](O)[C@H](O)[C@H]1O [Ethyl glucuronide] | – | – | – | – | – | – | Ethyl glucuronide recovery in urine ([3]; after EVOO (25 mL)): undetectable; Ethyl glucuronide recovery in urine ([3]; after RW + EVOO intervention): 19.3 ± 7.6 µmols; Ethyl glucuronide recovery in urine ([3]; after RW intervention (150 mL)): 19.0 ± 9.5 µmols; Ethyl glucuronide in urine at baseline [3, 4]: undetectable
Oc1ccc(C=Cc2cc(O)cc(O)c2)cc1 [RESV, 3,4′,5-Trihydroxystilbene] | – | – | – | – | – | – | RESV in baseline urine samples [2, 4]: no RESV was observed

More lines, main results first:

Urinary recovery from 0 to 6 h (single free form or metabolite) ([1]; after 25 mL EVOO + 150 mL RW) | Urinary recovery from 0 to 6 h (single free form or metabolite) ([1]; after single dose 25 mL EVOO) | Urinary recovery from 0 to 6 h (single free form or metabolite) ([1]; after single dose 150 mL RW) | RESV urinary recovery from 0 to 6 h ([2]; after single dose 25 mL EVOO) | Compound | RESV urinary recovery from 0 to 6 h ([2]; after 25 mL EVOO + 150 mL RW) | RESV urinary recovery from 0 to 6 h ([2]; after single dose 150 mL RW) | also measured
– | – | – | 0.0 ± 0.0 nmol | Oc1ccc(C=Cc2cc(O)cc(O)c2)cc1 [t-RESV, 3,4′,5-Trihydroxystilbene] | 61.7 ± 42.4 nmol and 61.7 ± 42.4 ^aa nmol | 59.2 ± 28.7 nmol and 59.2 ± 28.7 ^aa nmol | –
460 ± 490 ^b nmol | 404 ± 346 nmol | 132 ± 114 ^aa nmol | – | OCCc1ccc(O)cc1 [TYR, tyrosol] | – | – | Total urinary recovery from 0 to 6 h (sum of free form and metabolites) ([1]; after 25 mL EVOO + 150 mL RW): 4925 ± 1751 nmol; Total urinary recovery from 0 to 6 h (sum of free form and metabolites) ([1]; after 25 mL EVOO + 150 mL RW, listed as Total TYR): 4925 ± 3993 ^aa b nmol; Total urinary recovery from 0 to 6 h (sum of free form and metabolites) ([1]; after single dose 25 mL EVOO): 2180 ± 1917 nmol; Total urinary recovery from 0 to 6 h (sum of free form and metabolites) ([1]; after single dose 150 mL RW): 2567 ± 1468 nmol
– | – | – | 0.0 ± 0.0 nmol | Oc1ccc(C=Cc2cc(O)cc(O)c2)cc1 [c-RESV, 3,4′,5-Trihydroxystilbene] | 83.8 ± 62.6 ^aa nmol | 72.8 ± 44.3 ^aa nmol | –
386 ± 289 ^bb nmol | 367 ± 221 nmol | 201 ± 173 ^aa nmol | – | OCCc1ccc(O)c(O)c1 [HT, 3,4-dihydroxyphenylethanol] | – | – | Total urinary recovery from 0 to 6 h (sum of free form and metabolites) ([1]; after 25 mL EVOO + 150 mL RW): 6286 ± 3198 nmol; Total urinary recovery from 0 to 6 h (sum of free form and metabolites) ([1]; after 25 mL EVOO + 150 mL RW, listed as Total HT): 6286 ± 3198 ^aa bb nmol; Total urinary recovery from 0 to 6 h (sum of free form and metabolites) ([1]; after single dose 25 mL EVOO): 3788 ± 1751 nmol; Total urinary recovery from 0 to 6 h (sum of free form and metabolites) ([1]; after single dose 150 mL RW): 2308 ± 847 nmol; Total urinary recovery from 0 to 6 h (sum of free form and metabolites) ([1]; after single dose 150 mL RW, listed as Total HT): 2308 ± 847 ^a nmol
